pIC50: −log10 of the molar value.

The target of one assay is human factor XIa (Homo sapiens (Human), UniProt P03951). Briefly: Measurement of FXIa inhibition. Type of assay: biochemical. Conditions: factor XIa from Kordia, substrate Boc-Glu(OBzl)-Ala-Arg-AMC, fluorescence. On the procedure: a.1) Measurement of FXIa Inhibition
The factor XIa inhibition of the substances according to the invention is determined using a biochemical test system which utilizes the reaction of a peptidic factor XIa substrate to determine the enzymatic activity of human factor XIa. Here, factor XIa cleaves from the peptic factor XIa substrate the C-terminal aminomethylcoumarin (AMC), the fluorescence of which is measured. The determinations are carried out in microtitre plates.
1 μl of the diluted substance solutions is placed into each of the wells of white microtitre plates from Greiner (384 wells). […] After 15 min of incubation, the enzyme reaction is started by addition of 20 μl of the factor XIa substrate Boc-Glu(OBzl)-Ala-Arg-AMC dissolved in assay buffer (10 μM in assay buffer) from Bachem, the mixture is incubated at room temperature (22° C.) for 30 min and fluorescence is then measured (excitation: 360 nm, emission: 460 nm). The measured emissions of the test batches with test substance are compared to those of control batches without test substance (only dimethyl sulphoxide instead of test substance in dimethyl sulphoxide), and IC50 values are calculated from the concentration/activity relationships.

The next assay addresses human plasma kallikrein (Homo sapiens (Human), UniProt P03952). Briefly: Determination of the plasma kallikrein activity. The assay is classed as biochemical. Conditions: plasma kallikrein from Kordia, substrate H-Pro-Phe-Arg-AMC, fluorescence. On the procedure: a.5) Determination of the Plasma Kallikrein Activity
To determine the plasma kallikrein inhibition of the substances according to the invention, a biochemical test system is used which utilizes the reaction of a peptidic plasma kallikrein substrate to determine the enzymatic activity of human plasma kallikrein. Here, plasma kallikrein cleaves from the peptic plasma kallikrein substrate the C-terminal aminomethylcoumarin (AMC), the fluorescence of which is measured. The determinations are carried out in microtitre plates.
1 μl of the diluted substance solutions is placed into each of the wells of white microtitre plates from Greiner (384 wells). 20 μl of assay buffer (50 mM Tris/HCl pH 7.4; 100 mM sodium chloride solution; 5 mM of calcium chloride solution; 0.1% of bovine serum albumin) and 20 μl of plasma kallikrein from Kordia (0.6 nM in assay buffer) are then added successively. After 15 min of incubation, the enzyme reaction is started by addition of 20 μl of the substrate H-Pro-Phe-Arg-AMC dissolved in assay buffer (10 μM in assay buffer) from Bachem, the mixture is incubated at room temperature (22° C.) for 30 min and fluorescence is then measured (excitation: 360 nm, emission: 460 nm). The measured emissions of the test batches with test substance are compared to those of control batches without test substance (only dimethyl sulphoxide instead of test substance in dimethyl sulphoxide), and IC50 values are calculated from the concentration/activity relationships.

human factor XIa, sequence (P03951 388-625): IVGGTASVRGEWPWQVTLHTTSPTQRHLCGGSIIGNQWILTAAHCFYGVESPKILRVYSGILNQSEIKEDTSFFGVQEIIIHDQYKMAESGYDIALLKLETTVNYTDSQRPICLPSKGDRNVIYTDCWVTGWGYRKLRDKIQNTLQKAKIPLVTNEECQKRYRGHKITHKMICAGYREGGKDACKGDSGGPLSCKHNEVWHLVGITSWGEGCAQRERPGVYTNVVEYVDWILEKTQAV
human factor XIa, sequence (P03951 19-387 partner): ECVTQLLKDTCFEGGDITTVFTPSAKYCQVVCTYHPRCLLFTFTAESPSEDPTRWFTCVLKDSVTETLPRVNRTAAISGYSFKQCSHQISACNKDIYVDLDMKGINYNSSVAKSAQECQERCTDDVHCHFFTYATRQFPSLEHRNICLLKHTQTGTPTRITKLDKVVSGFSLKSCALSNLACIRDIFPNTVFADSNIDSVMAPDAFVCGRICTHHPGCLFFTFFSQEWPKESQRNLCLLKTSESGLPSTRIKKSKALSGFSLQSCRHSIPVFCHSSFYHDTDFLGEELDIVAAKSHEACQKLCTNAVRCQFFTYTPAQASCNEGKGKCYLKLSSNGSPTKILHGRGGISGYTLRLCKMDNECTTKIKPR
human plasma kallikrein, sequence (P03952 391-638): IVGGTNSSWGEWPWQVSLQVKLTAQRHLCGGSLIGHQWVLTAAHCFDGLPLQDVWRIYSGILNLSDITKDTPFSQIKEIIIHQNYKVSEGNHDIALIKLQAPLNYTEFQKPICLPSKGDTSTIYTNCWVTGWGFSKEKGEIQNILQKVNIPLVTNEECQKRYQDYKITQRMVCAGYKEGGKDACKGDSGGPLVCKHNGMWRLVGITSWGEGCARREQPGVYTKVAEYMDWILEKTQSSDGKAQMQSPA
human plasma kallikrein, sequence (P03952 20-390 partner): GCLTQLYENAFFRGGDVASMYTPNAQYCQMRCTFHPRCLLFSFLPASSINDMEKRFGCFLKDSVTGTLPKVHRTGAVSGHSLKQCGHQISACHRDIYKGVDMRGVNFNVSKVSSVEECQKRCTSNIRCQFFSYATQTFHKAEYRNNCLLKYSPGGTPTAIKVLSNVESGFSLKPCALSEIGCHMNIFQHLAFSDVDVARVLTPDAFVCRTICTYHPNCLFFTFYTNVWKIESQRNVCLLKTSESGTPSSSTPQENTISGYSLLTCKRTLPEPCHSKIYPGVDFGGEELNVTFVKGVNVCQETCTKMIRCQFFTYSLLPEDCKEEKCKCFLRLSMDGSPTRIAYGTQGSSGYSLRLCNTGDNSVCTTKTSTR

With `O=C1NC2(CC2)Cc2ccc(Cl)cc2-c2cc(=O)n(C(Cc3ccccc3)C(=O)Nc3ccc4[nH]c(=O)[nH]c4c3)cc21` (centres unmarked) [Example 29, 2-(11′-Chloro-2′,5′-dioxo-2′,5′,6′,8′-tetrahydro-3′H-spiro[cyclopropane-1,7′-pyrido[3,4-e][3]benzazocine]-3′-yl)-N-(2-oxo-2,3-dihydro-1H-benzimidazol-5-yl)-3-phenylpropanamide], the pIC50 (commonly −log10 of the IC50, conventionally taken in molar units) was 8.35 against human factor XIa and 7.38 at human plasma kallikrein.

As for `Cn1cc2cc(NC(=O)C(Cc3ccccc3)n3cc4c(cc3=O)-c3cc(Cl)ccc3CC3(CC3)NC4=O)ccc2n1` (centres unmarked) [Example 30, 2-(11′-Chloro-2′,5′-dioxo-2′,5′,6′,8′-tetrahydro-3′H-spiro[cyclopropane-1,7′-pyrido[3,4-e][3]benzazocine]-3′-yl)-N-(2-methyl-2H-indazol-5-yl)-3-phenylpropanamide], the figures for the pIC50 against human factor XIa and on human plasma kallikrein were 8.35 and 7.35, respectively.

As to `COCCC(C(=O)Nc1ccc2nn(C)cc2c1)n1cc2c(cc1=O)-c1cc(Cl)ccc1CC(CF)NC2=O` (centres unmarked) [Example 31, 2-[11-Chloro-7-(fluoromethyl)-2,5-dioxo-5,6,7,8-tetrahydropyrido[3,4-e][3]benzazocin-3(2H)-yl]-4-methoxy-N-(2-methyl-2H-indazol-5-yl)butanamide], the pIC50 at human factor XIa is 8.55; on human plasma kallikrein, 7.38.

On to `COCCC(C(=O)Nc1ccc(C(=O)O)cc1)n1cc2c(cc1=O)-c1cc(Cl)ccc1CC(CF)NC2=O` (centres unmarked) [Example 33, 4-({2-[11-Chloro-7-(fluoromethyl)-2,5-dioxo-5,6,7,8-tetrahydropyrido[3,4-e][3]benzazocin-3(2H)-yl]-4-methoxybutanoyl}amino)benzoic acid], for which the figures for the pIC50 against human factor XIa and against human plasma kallikrein were 8.92 and 7.01, respectively.

The values above are taken from patent US10138236B2, “Factor xia-inhibiting pyridobenzazepine and pyridobenzazocine derivatives” (BAYER PHARMA AKTIENGESELLSCHAFT, priority 2014, dated 2018).
